Laboratory results published in US9211336B2, “Antioxidant stabilized pharmaceutical formulations comprising antineoplastic compounds” (Hikma Pharmaceuticals, priority 2013, dated 2015).

Key:
[1] = solid powder, 1 month 40° C./75% RH; weight percentage
Method: In the tested formulations, the weight percentages of certain degradation products were measured.

[2] = Stability study, effect of pH: temozolomide solutions in various buffers; assay type: physicochemical
[3] = only stable in acidic conditions; cited from earlier work
[4] = Effect of controlled preparation temperature on dissolution of temozolomide

For `Cn1nnc2c(C(N)=O)ncn2c1=O` [Temozolomide, 3,4-dihydro-3-methyl-4-oxoimidazo[5,1-d]-as-tetrazine-8-carboxamide], the “Dacarbazine-related compound A” value [1] was 8.4%, the “Max. Unknown” value [1] was 0.22% and the “Stability after 1 hr (temozolomide as % of amount originally added)” value ([2]; 0.1N HCl pH = 1.1) was 101.7%. The “Stability after 5 hr” value ([2]; 0.1N HCl pH = 1.1) was 100.2%, the “Stability after 6 hr” value ([2]; 0.1N HCl pH = 1.1) was 99.8% and the “Stability after 1 hr (temozolomide as % of amount originally added)” value ([2]; Acetate Buffer pH = 4.5) was 99.2%. For the same molecule, the “Stability after 5 hr” value ([2]; Acetate Buffer pH = 4.5) was 98.1%, the “Stability after 6 hr” value ([2]; Acetate Buffer pH = 4.5) was 98.2% and the “Stability after 1 hr (temozolomide as % of amount originally added)” value ([2]; Hydrochloride Buffer pH = 2.2) was 99.1%. For the same molecule, the “Stability after 5 hr” value ([2]; Hydrochloride Buffer pH = 2.2) was 98.6%, the “Stability after 6 hr” value ([2]; Hydrochloride Buffer pH = 2.2) was 99.0% and the “Stability after 5 min” value ([2]; Phosphate Buffer pH = 6.8) was 100.1%. For the same molecule, the “Stability after 10 min” value ([2]; Phosphate Buffer pH = 6.8) was 99.8%, the “Stability after 15 min” value ([2]; Phosphate Buffer pH = 6.8) was 99.0% and the “Stability after 30 min” value ([2]; Phosphate Buffer pH = 6.8) was 98.0%. For the same molecule, the “Stability after 5 min” value ([2]; Phosphate Buffer pH = 7.5) was 99.4%, the “Stability after 10 min” value ([2]; Phosphate Buffer pH = 7.5) was 99.0% and the “Stability after 15 min” value ([2]; Phosphate Buffer pH = 7.5) was 97.8%. The “Stability after 30 min” value ([2]; Phosphate Buffer pH = 7.5) was 90.5%, the “Stability after 5 min” value ([2]; Water) was 99.9% and the “Stability after 10 min” value ([2]; Water) was 99.6%. For the same molecule, the “Stability after 15 min” value ([2]; Water) was 98.8%, the “Stability after 30 min” value ([2]; Water) was 97.6% and the “pH at which stable” value [3] was “less than 5”. For the same molecule, the “Observation (dissolution of temozolomide)” value (shortened to “Observation”) ([4]; Prep Temp 10 ° C., About 3 hrs) was “Temozolomide did not dissolve”, the “Observation” value ([4]; Prep Temp 15 ° C., About 2 hrs) was “Temozolomide did not dissolve” and the “Observation” value ([4]; Prep Temp 18 ° C.) was “Temozolomide dissolved”. The “Time (to dissolve)” value ([4]; Prep Temp 18 ° C.) was “About 0.5 to 0.75 hrs”, the “Observation” value ([4]; Prep Temp 19 ° C.) was “Temozolomide dissolved” and the “Time (to dissolve)” value ([4]; Prep Temp 19 ° C.) was “About 0.5 to 0.75 hrs”. The “Observation” value ([4]; Prep Temp 20 ° C.) was “Temozolomide dissolved”, the “Time (to dissolve)” value ([4]; Prep Temp 20 ° C.) was “About 0.5 to 0.75 hrs” and the “Observation” value ([4]; Prep Temp 24 ° C.) was “Temozolomide dissolved”. The “Time (to dissolve)” value ([4]; Prep Temp 24 ° C.) was “About 0.5 to 0.75 hrs”, the “Observation” value ([4]; Prep Temp 25 ° C.) was “Temozolomide dissolved” and the “Time (to dissolve)” value ([4]; Prep Temp 25 ° C.) was “About 0.5 to 0.75 hrs”.
